In brackets after ≈: the same amount, converted by molar mass.
How the values were obtained:
HT-29 [1] = test: Cytotoxicity against human HT-29 cells after 72 hrs by SRB assay; type: functional, cell-based; settings: HT-29, 72 h
HT-29 [2] = test: Potency index, ratio of cisplatin IC50 to compound IC50 for cytotoxicity against human HT-29 cells; type: functional
Alpha glucosidase = Alpha glucosidase (Homo sapiens, UniProt O43451+P10253+P14410+Q2M2H8); test: Inhibition of alpha-glucosidase (unknown origin) using p-nitrophenyl-alpha-D-glucopyranoside as substrate pre-incubated for 15 mins followed by substrate addition and measured for 20 mins by spectrophotometric analysis; type: protein assay
[3] = test system: Mycobacterium tuberculosis; test: Antitubercular activity against Mycobacterium tuberculosis H37Rv after 7 days by MABA; type: functional; settings: 168 h
Escherichia coli [4] = test: Antimicrobial activity against Escherichia coli […]; type: functional
DU-145 = test: Cytotoxicity against human DU145 cells incubated for 48 hrs by MTT assay; type: functional, cell-based; settings: DU-145, 48 h
A549 [5] = test: Cytotoxicity against human A549 cells after 48 hrs by MTT assay; type: functional, cell-based; settings: A549, 48 h
Acetylcholinesterase = Acetylcholinesterase (Electrophorus electricus, UniProt O42275); test: Inhibition of electric eel AChE using acetylthiocholine iodide as substrate preincubated for 3 mins followed by substrate addition by Ellman's method
Cholinesterase [6] = biological target: Cholinesterase (Equus caballus, UniProt P81908); test: Inhibition of equine serum BuChE using butyrylthiocholine iodide as substrate preincubated for 3 mins followed by substrate addition by Ellman's method
[7] = biological target: Tyrosinase (Homo sapiens) (UniProt P14679); test: Inhibition of tyrosinase (unknown origin) using L-DOPA as substrate preincubated with substrate for 2 mins followed by enzyme addition and measured after 10 min by spectrophotometric method relative to control
[8] = biological target: Polyunsaturated fatty acid 5-lipoxygenase (Homo sapiens, UniProt P09917); test: Inhibition of 5-lipoxygenase (unknown origin) incubated for 10 mins
Cholinesterase [9] = biological target: Cholinesterase (Homo sapiens, UniProt P06276); test: Inhibition of BChE (unknown origin) using butyrylthiocholine iodide as substrate preincubated for 15 mins followed by substrate addition and measured after 15 mins
A549 [10] = test: Cytotoxicity against human A549 cells incubated for 24 hrs by MTT assay; type: functional, cell-based; settings: A549, 24 h
HeLa [11] = test: Cytotoxicity against human HeLa cells incubated for 24 hrs by MTT assay; type: functional, cell-based
A549 [12] = test: Induction of cell cycle arrest in human A549 cells assessed as accumulation at subG1 phase by flow cytometry relative to control; type: functional
HeLa [13] = test: Induction of cell cycle arrest in human HeLa cells assessed as accumulation at subG1 phase by flow cytometry relative to control; type: functional
[14] = Inhibition of soyabean 5-lipoxygenase using arachidonic acid as substrate incubated for 5 mins by spectrophotometric method; design: species or system Glycine max
[15] = biological target: Prostaglandin G/H synthase 2 (Homo sapiens, UniProt P35354); test: Inhibition of human COX2 using arachidonic acid as substrate pretreated for 5 mins followed by substrate addition and measured after 20 mins by colorimetric assay
Rattus norvegicus = test: Anti-inflammatory activity against carrageenan-induced paw oedema in Wistar rat assessed as reduction in paw edema at 20 mg/kg administered 30 mins prior to carrageenan challenge measured at 3 hrs post carrageenan challenge by plethysmometric method relative to control; type: functional; design: scale not given: the % may be the effect or the level left
MCF7 [16] = test: cells; settings: Homo sapiens, MCF7, 72 h
Description: Antiproliferative activity against human MCF7 cells incubated for 72 hrs by MTT assay

Escherichia coli [17] = test: Antimicrobial activity against Escherichia coli NCIM 5051 incubated for 36 hrs by agar well diffusion method; type: functional
Staphylococcus aureus = test: Antimicrobial activity against Staphylococcus aureus NCIM 5022 incubated for 36 hrs by agar well diffusion method; type: functional
SNB-19 [18] = test: Potency index, ratio of cisplatin IC50 to compound IC50 for cytotoxicity against human SNB19 cells; type: functional
SNB-19 [19] = test: Cytotoxicity against human SNB19 cells after 72 hrs by WST-1 assay; type: functional, cell-based; settings: SNB-19, 72 h
U-937 [20] = test: Antiinflammatory activity in human U937 cells assessed as inhibition of LPS-induced TNF-alpha production incubated for 24 hrs by ELISA; type: functional, cell-based; settings: U-937, 24 h
U-937 [21] = test: Antiinflammatory activity in human U937 cells assessed as inhibition of LPS-induced TNF-alpha production at 10 uM incubated for 24 hrs by ELISA relative to control; type: functional; settings: U-937, 24 h
[22] = Inhibition of Saccharomyces cerevisiae alpha-glucosidase using p-nitrophenyl-alpha-D-glucopyranoside as substrate preincubated for 10 mins followed by substrate addition and measured after 20 mins by spectrophotometric analysis
Leishmania major = test: Antileishmanial activity against Leishmania major 5-ASKH promastigotes incubated for 72 hrs by hemocytometer based cell counting method; type: functional, organism-based
A549 [23] = test: Potency index, ratio of foretinib IC50 to compound IC50 for antiproliferative activity against human A549 cells; type: functional
[24] = biological target: Hepatocyte growth factor receptor (Homo sapiens, UniProt P08581); test: Inhibition of cMET (unknown origin) using FAM-labeled peptide as substrate pre-incubated for 10 mins followed by substrate addition by mobility shift assay
MCF7 [25] = test: Potency index, ratio of foretinib IC50 to compound IC50 for antiproliferative activity against human MCF7 cells; type: functional
HepG2 [26] = test: Potency index, ratio of foretinib IC50 to compound IC50 for antiproliferative activity against human HepG2 cells; type: functional
A549 [27] = test: Cytotoxicity against human A549 cells incubated for 72 hrs by MTT assay; type: functional, cell-based; settings: A549, 72 h
HepG2 [28] = test: Cytotoxicity against human HepG2 cells incubated for 72 hrs by MTT assay; type: functional, cell-based; settings: HepG2, 72 h
[29] = Antioxidant activity assessed as inhibition of DPPH radical generation; type: functional
Urease = Urease (Canavalia ensiformis, UniProt P07374); test: Inhibition of jack bean urease assessed as reduction in ammonia production by Berthelot colorimetric method
[30] = Inhibition of quorum sensing system in Pseudomonas aeruginosa MH602 PlasB::gfp-ASV at 250 uM measured every 30 minutes over 20 hrs by fluorescence analysis relative to control
MCF7 [31] = test: Cytotoxicity against human MCF7 cells incubated up to 48 hrs by MTT assay; type: functional, cell-based; settings: MCF7, 48 h
Pseudomonas aeruginosa = test: Antibacterial activity against Pseudomonas aeruginosa MTCC 424 after 24 hrs by serial dilution method; type: functional; settings: MTCC 424, 24 h
Escherichia coli [32] = test: Antibacterial activity against Escherichia coli MTCC 1652 after 24 hrs by serial dilution method; type: functional; settings: MTCC 1652, 24 h
Candida albicans = test: Antifungal activity against Candida albicans MTCC 183 after 24 hrs by serial dilution method; type: functional; settings: MTCC 183, 24 h
[33] = test system: Staphylococcus epidermidis; test: Antibacterial activity against Staphylococcus epidermidis MTCC 6880 incubated for 24 hrs by serial dilution method; type: functional; settings: MTCC 6880, 24 h
[34] = biological target: Dihydroorotate dehydrogenase (quinone), mitochondrial (Homo sapiens, UniProt Q02127); test: Inhibition of human recombinant N-terminal His-tagged DHODH (31 to 395 residues) expressed in Escherichia coli using dihydroorotate substrate preincubated for 5 mins followed by substrate addition by DCIP assay
[35] = biological target: Serine/threonine-protein kinase PLK1 (Homo sapiens, UniProt P53350); test: Inhibition of PLK1 PBD (unknown origin) using GPMQSpTPLNG-OH as fluorescent probe incubated for 30 mins by fluorescence polarization assay
Bacillus subtilis = test: Antibacterial activity against Bacillus subtilis MTCC 441 after 24 hrs by serial dilution method; type: functional; settings: MTCC 441, 24 h

Sequence of Cholinesterase (Homo sapiens, UniProt P06276) (P06276 whole entry): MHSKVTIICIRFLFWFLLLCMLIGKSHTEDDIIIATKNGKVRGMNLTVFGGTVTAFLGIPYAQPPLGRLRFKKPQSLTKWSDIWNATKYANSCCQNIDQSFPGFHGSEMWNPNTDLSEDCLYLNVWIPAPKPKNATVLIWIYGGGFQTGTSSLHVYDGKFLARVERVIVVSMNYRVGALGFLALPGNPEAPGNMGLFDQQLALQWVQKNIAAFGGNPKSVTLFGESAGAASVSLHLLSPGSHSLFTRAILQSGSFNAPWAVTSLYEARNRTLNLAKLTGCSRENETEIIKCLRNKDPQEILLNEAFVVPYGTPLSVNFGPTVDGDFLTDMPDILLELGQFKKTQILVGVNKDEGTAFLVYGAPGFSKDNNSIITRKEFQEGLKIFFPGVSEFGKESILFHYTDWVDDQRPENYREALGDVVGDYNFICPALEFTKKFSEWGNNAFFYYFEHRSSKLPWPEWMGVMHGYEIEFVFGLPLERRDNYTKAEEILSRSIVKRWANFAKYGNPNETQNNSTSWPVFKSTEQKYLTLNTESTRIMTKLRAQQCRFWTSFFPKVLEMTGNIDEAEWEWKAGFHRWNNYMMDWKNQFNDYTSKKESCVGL
Sequence of Polyunsaturated fatty acid 5-lipoxygenase (P09917 whole entry): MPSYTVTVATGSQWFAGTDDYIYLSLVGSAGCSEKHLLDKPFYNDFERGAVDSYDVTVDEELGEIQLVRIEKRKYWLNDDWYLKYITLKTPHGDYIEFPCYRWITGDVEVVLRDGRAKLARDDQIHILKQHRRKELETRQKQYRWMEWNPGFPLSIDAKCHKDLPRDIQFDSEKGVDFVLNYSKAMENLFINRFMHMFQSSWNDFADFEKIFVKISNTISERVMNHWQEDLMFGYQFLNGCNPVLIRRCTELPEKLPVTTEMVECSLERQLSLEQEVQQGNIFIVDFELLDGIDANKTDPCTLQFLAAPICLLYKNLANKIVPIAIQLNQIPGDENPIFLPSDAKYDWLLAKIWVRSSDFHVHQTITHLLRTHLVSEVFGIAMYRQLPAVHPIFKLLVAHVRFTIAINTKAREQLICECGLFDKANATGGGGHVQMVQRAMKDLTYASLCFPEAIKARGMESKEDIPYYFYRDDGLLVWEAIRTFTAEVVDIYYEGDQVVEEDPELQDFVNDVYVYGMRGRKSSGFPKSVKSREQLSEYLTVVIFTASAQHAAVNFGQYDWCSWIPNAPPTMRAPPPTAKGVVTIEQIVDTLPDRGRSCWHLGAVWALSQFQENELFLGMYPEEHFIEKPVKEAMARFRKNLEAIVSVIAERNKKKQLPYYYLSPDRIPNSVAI
Sequence of Tyrosinase (Homo sapiens) (P14679 whole entry): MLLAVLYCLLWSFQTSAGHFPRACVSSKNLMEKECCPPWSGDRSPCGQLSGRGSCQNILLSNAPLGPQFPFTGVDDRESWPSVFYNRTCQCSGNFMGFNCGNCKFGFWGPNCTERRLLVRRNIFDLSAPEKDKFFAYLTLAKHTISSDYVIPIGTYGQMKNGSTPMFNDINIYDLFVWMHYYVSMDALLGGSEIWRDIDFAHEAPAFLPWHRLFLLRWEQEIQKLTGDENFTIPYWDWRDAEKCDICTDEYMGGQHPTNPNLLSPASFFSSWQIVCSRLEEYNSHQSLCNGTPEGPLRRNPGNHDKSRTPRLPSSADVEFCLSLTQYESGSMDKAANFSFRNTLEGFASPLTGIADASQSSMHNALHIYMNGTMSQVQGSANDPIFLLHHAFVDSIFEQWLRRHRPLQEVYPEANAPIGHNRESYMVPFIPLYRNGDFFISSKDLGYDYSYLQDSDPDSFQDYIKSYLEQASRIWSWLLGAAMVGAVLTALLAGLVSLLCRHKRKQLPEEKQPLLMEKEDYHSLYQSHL
Sequence of Cholinesterase (Equus caballus, UniProt P81908) (P81908 whole entry): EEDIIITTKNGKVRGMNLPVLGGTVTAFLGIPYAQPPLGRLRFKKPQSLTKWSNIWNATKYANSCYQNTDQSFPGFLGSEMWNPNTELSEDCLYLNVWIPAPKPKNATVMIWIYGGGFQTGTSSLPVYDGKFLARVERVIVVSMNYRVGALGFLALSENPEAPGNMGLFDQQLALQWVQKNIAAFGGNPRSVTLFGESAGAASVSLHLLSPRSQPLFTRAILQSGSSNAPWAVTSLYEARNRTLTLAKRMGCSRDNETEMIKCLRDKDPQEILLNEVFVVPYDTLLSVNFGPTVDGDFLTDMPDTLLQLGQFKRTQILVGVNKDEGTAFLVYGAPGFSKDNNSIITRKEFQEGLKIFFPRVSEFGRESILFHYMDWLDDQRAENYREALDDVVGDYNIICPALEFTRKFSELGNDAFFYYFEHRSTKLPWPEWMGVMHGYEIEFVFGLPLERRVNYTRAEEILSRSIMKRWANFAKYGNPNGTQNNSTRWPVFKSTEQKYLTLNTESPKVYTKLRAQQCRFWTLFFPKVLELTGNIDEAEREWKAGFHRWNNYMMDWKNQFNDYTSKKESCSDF
Sequence of Urease (P07374 whole entry): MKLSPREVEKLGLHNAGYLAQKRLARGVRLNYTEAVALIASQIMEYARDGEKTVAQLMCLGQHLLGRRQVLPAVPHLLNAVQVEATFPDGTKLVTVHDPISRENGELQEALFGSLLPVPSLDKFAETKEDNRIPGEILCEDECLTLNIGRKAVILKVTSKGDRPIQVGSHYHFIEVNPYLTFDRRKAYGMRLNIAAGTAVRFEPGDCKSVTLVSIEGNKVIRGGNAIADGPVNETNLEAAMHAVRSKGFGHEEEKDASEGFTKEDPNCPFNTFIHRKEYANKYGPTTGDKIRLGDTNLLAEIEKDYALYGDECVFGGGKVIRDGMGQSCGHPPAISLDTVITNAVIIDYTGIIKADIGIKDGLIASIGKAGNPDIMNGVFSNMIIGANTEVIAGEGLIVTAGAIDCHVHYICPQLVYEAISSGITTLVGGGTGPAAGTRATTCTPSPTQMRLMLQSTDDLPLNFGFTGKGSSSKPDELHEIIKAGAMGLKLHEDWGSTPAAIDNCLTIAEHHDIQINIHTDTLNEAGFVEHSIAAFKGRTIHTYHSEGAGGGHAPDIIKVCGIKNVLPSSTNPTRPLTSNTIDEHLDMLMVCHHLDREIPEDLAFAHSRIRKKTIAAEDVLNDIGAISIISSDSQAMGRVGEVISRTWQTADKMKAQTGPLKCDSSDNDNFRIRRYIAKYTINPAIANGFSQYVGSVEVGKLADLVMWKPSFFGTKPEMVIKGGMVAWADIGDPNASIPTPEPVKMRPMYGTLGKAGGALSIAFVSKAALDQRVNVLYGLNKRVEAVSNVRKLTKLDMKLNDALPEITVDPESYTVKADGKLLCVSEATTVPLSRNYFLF
Sequence of Dihydroorotate dehydrogenase (quinone), mitochondrial (Q02127 whole entry, the tested form may be a part): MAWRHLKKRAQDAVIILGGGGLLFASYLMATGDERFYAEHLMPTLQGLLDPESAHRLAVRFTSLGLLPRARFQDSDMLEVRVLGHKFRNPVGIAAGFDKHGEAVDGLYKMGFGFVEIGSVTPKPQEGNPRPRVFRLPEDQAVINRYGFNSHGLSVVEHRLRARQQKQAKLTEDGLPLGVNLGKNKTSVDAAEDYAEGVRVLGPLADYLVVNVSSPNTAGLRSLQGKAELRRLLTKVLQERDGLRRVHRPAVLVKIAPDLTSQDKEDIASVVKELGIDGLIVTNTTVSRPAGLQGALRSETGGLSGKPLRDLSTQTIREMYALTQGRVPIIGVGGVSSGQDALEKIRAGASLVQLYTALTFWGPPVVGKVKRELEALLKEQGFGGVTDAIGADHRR
Sequence of Serine/threonine-protein kinase PLK1 (P53350 whole entry): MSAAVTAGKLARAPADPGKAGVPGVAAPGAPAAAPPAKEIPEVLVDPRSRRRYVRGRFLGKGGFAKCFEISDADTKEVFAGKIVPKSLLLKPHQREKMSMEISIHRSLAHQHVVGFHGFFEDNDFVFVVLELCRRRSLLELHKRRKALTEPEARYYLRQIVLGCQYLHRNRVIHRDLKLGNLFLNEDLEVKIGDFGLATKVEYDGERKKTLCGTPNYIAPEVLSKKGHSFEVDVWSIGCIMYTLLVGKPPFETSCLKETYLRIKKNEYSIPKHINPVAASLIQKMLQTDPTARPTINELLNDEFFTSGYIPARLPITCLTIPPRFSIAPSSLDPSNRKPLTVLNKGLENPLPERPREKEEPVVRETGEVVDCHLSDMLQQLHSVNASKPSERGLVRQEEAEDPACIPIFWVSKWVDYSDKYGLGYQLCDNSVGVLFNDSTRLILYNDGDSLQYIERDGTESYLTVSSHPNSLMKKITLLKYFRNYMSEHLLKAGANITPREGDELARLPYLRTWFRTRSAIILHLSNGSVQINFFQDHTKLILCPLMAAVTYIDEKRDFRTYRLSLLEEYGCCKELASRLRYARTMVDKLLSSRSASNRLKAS
Sequence of Acetylcholinesterase (O42275 whole entry): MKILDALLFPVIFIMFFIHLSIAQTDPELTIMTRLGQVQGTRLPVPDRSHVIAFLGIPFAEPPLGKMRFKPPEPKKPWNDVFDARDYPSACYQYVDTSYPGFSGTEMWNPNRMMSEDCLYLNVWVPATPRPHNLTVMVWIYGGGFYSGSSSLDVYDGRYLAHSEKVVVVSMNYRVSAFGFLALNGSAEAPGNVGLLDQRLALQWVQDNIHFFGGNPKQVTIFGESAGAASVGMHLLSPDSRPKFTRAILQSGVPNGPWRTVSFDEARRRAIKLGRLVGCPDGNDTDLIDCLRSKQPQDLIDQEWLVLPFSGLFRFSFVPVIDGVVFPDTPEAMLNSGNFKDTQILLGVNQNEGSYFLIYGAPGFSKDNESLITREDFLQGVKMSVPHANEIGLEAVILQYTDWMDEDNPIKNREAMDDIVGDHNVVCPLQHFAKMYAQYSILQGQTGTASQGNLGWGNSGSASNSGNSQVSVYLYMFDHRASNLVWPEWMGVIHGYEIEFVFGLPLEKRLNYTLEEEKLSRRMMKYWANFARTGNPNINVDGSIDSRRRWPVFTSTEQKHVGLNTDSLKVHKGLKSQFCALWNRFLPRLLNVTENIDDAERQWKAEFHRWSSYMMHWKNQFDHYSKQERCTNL

C=C[C@H]1CN2CC[C@H]1C[C@H]2[C@H](O)c1cc(-c2cn(-c3ccc(O)cc3)nn2)nc2ccc(OC)cc12
IC50 (HT-29 [1]): 1.21 µM | Ratio IC50 (HT-29 [2]): 8

COc1ccc(-c2ccc(O[C@H](C)Cn3cc(-c4ccc(C(F)(F)F)cc4)nn3)c(OC)c2)cc1
IC50 (Alpha glucosidase): 14.2 µM

COc1ccc(-n2nnc3c2CCC2(C=Cc4cc(C)ccc4O2)C3)cc1 (centres undefined)
MIC [3]: 4.34 µM (≈ 1.56 µg/mL)

Cc1ccc2c(c1)C=CC1(CCc3c(nnn3-c3ccccc3)C1)O2 (centres undefined)
MIC [3]: 4.74 µM (≈ 1.56 µg/mL)

Cc1cc(O)c(C(=O)/C=C/c2ccc(OCc3cn(Cc4ccc(Br)cc4)nn3)cc2)c(=O)o1
MIC (Escherichia coli [4]): 3 µM (≈ 1.57 µg/mL)

COc1cc(Cn2cc(C(=O)c3c(-c4ccccc4)nc4ccccn34)nn2)cc(OC)c1OC
IC50 (DU-145): 1.04 µM | IC50 (A549 [5]): 0.51 µM

COc1ccc(-n2nnc3c2CCC2(C=Cc4cc(Cl)ccc4O2)C3)cc1 (centres undefined)
MIC [3]: 4.11 µM (≈ 1.56 µg/mL)

O=C(CCCCC1CCSS1)NCc1cn(CCCCOc2ccc(-c3cc4c(ccc5ccccc54)oc3=O)cc2)nn1 (centres undefined)
IC50 (Acetylcholinesterase): 7.3 µM | IC50 (Cholinesterase [6]): 68.6 µM

O=c1oc2ccccc2c2nn(Cc3cn(-c4c(Cl)cc(Cl)cc4Cl)nn3)cc12
inhibition [7]: 58% | IC50 [8]: 24 µM | IC50 (Cholinesterase [9]): 29 µM

COc1cc(-c2cc(COc3ccccc3-c3nc4ccccc4o3)on2)ccc1OCc1cn(CC(=O)NCc2ccco2)nn1
IC50 (A549 [10]): 2.59 µM | IC50 (HeLa [11]): 1.77 µM | Activity (A549 [12]): 49.43% | Activity (HeLa [13]): 42.58%

CCc1ccc(-n2cc(CNC(=O)C(=O)c3cc4ccccc4[nH]3)nn2)cc1
IC50 (DU-145): 8.17 µM | IC50 [14]: 7.73 µM | IC50 [15]: 0.12 µM | Activity (Rattus norvegicus): 76.9%

O=C1CCC(N2C(=O)c3cccc(NC(=O)CCCCCCCn4cc(COc5c(O)cc(O)c6c(=O)cc(-c7ccccc7)oc56)nn4)c3C2=O)C(=O)N1 (centres undefined)
IC50 (MCF7 [16]): 17 µM

O=c1oc2ccccc2c2c1cnn2Cc1cn(-c2c(Cl)cc(Cl)cc2Cl)nn1
inhibition [7]: 72% | IC50 [8]: 21 µM | IC50 (Cholinesterase [9]): 18 µM

Clc1ccc(Cn2nncc2CN2CCN(C(c3ccccc3)c3ccccc3)CC2)c(Cl)c1
diameter of the inhibition zone (DIZ) (Escherichia coli [17]): 16.15 mm | diameter of the inhibition zone (DIZ) (Staphylococcus aureus): 16.45 mm

C=C(C)[C@@H]1CC[C@]2(COC(=O)c3cn([C@H]4C[C@H](n5cc(C)c(=O)[nH]c5=O)O[C@@H]4CO)nn3)CC[C@]3(C)[C@H](CC[C@@H]4[C@@]5(C)CCC(=O)C(C)(C)[C@@H]5CC[C@]43C)[C@@H]12
Ratio IC50 (SNB-19 [18]): 5 | IC50 (SNB-19 [19]): 0.17 µM

Cc1cc(O)cc2oc(=O)cc(CNCc3cn(-c4ccc(Br)cc4)nn3)c12
IC50 (U-937 [20]): 8.01 µM | inhibition at 10 µM (U-937 [21]): 62%

O=c1c2ccccc2nc(SCc2cn(Cc3ccc(Br)cc3)nn2)n1CCc1ccccc1
Ki [22]: 117 µM

COC(=O)[C@H](CC(C)C)NC(=O)c1cn(-c2ccccc2N)nn1
IC50 (Leishmania major): 11 µg/mL (≈ 33.2 µM)

O=C(Nc1ccc(Oc2ncnc3ccsc23)c(F)c1)c1nnn(-c2ccc(Cl)cc2)c1C(F)(F)F
Ratio IC50 (A549 [23]): 3.7 - 5.4 | IC50 [24]: 0.016 µM | Ratio IC50 (MCF7 [25]): 3.7 - 5.4 | IC50 (MCF7 [16]): 1.1 µM | Ratio IC50 (HepG2 [26]): 3.7 - 5.4 | IC50 (A549 [27]): 0.9 µM | IC50 (HepG2 [28]): 0.5 µM

Fc1cccc(Cl)c1Cn1nncc1CN1CCN(C(c2ccccc2)c2ccccc2)CC1
diameter of the inhibition zone (DIZ) (Escherichia coli [17]): 15.63 mm | diameter of the inhibition zone (DIZ) (Staphylococcus aureus): 16.33 mm

Cn1c(=O)c2c3cc(F)ccc3c(=O)n(Cc3cn(Cc4ccccc4)nn3)c2n(C)c1=O
IC50 [29]: 6.02 µM

COc1ccc(NC(=O)NCc2cn(Cc3ccc(Cl)cc3Cl)nn2)cc1
IC50 (Urease): 22.8 µM

CCc1ccc(-n2cc(CCC(=O)Nc3c(-c4ccccc4)[nH]c4ccccc34)nn2)cc1
inhibition [30]: 60.8%

O=C1C(=O)N(CCn2cc(COCCOc3ccc(/C(=C(/CCCl)c4ccccc4)c4ccccc4)cc3)nn2)c2c(Br)cc(Br)cc21
IC50 (MCF7 [31]): 1.56 µM

O=C(Cn1cc(CSc2ccc(Cl)cc2)nn1)OCc1ccc(Cl)cc1
MIC (Pseudomonas aeruginosa): 13.8 µM (≈ 5.63 µg/mL) | MIC (Escherichia coli [32]): 13.8 µM (≈ 5.63 µg/mL) | MIC (Candida albicans): 13.8 µM (≈ 5.63 µg/mL) | MIC [33]: 13.8 µM (≈ 5.63 µg/mL)

NC(=O)c1cc(F)c(F)cc1-n1cc(COc2ccc(C(F)(F)F)cc2)nn1
IC50 [34]: 2.1 µM

O=C(CCNC(=O)c1ccc(CO)cc1)N[C@@H](Cc1cnnn1CCCCCCCCc1ccccc1)C(=O)NCc1cnnn1CCP(=O)(O)O
IC50 [35]: 3.37 µM

COc1c(O)cc(O)c2c(=O)cc(-c3ccccc3)oc12 [WOGONIN]
IC50 (MCF7 [16]): 30 µM

O=C(Cn1cc(CSc2ccc(Br)cc2)nn1)OCc1ccc(Cl)cc1
MIC (Pseudomonas aeruginosa): 15.3 µM (≈ 6.93 µg/mL) | MIC (Escherichia coli [32]): 15.3 µM (≈ 6.93 µg/mL) | MIC (Candida albicans): 15.3 µM (≈ 6.93 µg/mL) | MIC [33]: 15.3 µM (≈ 6.93 µg/mL) | MIC (Bacillus subtilis): 15.3 µM (≈ 6.93 µg/mL)

From ChEMBL document CHEMBL4385639, “1,2,3-Triazole-containing hybrids as leads in medicinal chemistry: A recent overview” (Bioorg Med Chem, 2019)
